Converted amounts (≈) assume the structure as drawn.
Tests used:
Assay type in all cases: functional
[1] = test system: Staphylococcus aureus; assay: Antibacterial activity against erythromycin susceptible Staphylococcus aureus by agar microdilution method
[2] = test system: Streptococcus pneumoniae; assay: Antibacterial activity against erythromycin susceptible Streptococcus pneumoniae by agar microdilution method
[3] = test system: Streptococcus pyogenes; assay: Antibacterial activity against erythromycin susceptible Streptococcus pyogenes by agar microdilution method
[4] = test system: Haemophilus influenzae; assay: Antibacterial activity against Haemophilus influenzae by agar microdilution method
[5] = test system: Streptococcus pyogenes; assay: Antibacterial activity against Mef-mediated macrolide efflux resistant Streptococcus pyogenes by agar microdilution method
[6] = test system: Staphylococcus aureus; assay: Antibacterial activity against inducibly macrolide/lincosamide/streptogramin B-resistant Staphylococcus aureus by agar microdilution method
[7] = test system: Streptococcus pneumoniae; assay: Antibacterial activity against Mef-mediated macrolide efflux resistant Streptococcus pneumoniae by agar microdilution method
[8] = test system: Staphylococcus aureus; assay: Antibacterial activity against constitutively macrolide/lincosamide/streptogramin B-resistant Staphylococcus aureus by agar microdilution method
[9] = test system: Streptococcus pneumoniae; assay: Antibacterial activity against constitutively macrolide/lincosamide/streptogramin B-resistant Streptococcus pneumoniae by agar microdilution method
[10] = test system: Streptococcus pyogenes; assay: Antibacterial activity against constitutively macrolide/lincosamide/streptogramin B-resistant Streptococcus pyogenes by agar microdilution method

SMILES	MIC [1]	MIC [2]	MIC [3]	MIC [4]	MIC [5]	MIC [6]	MIC [7]	MIC [8]	MIC [9]	MIC [10]
NCCNc1cc2c(=O)c(C(=O)O)cn(C3CC3)c2cc1Cl	> 64 µg/mL	> 64 µg/mL	> 64 µg/mL	> 64 µg/mL	–	–	–	–	–	–
C=CCO[C@]1(C)C[C@@H](C)NC(=O)[C@H](C)[C@@H](OC(=O)C=C)[C@](C)(O)[C@@H](CC)OC(=O)[C@H](C)[C@@H](OC(=O)C=C)[C@H](C)[C@H]1O[C@@H]1O[C@H](C)C[C@H](N(C)C)[C@H]1O	32 µg/mL (≈ 43.3 µM)	32 µg/mL (≈ 43.3 µM)	32 µg/mL (≈ 43.3 µM)	> 64 µg/mL	> 64 µg/mL	> 64 µg/mL	> 64 µg/mL	> 64 µg/mL	> 64 µg/mL	> 64 µg/mL
C=CCO[C@]1(C)C[C@@H](C)NC(=O)[C@H](C)[C@@H](O)[C@](C)(O)[C@@H](CC)OC(=O)[C@H](C)[C@@H](OC(=O)CCNC(C)Cc2ccc([N+](=O)[O-])cc2)[C@H](C)[C@H]1O[C@@H]1O[C@H](C)C[C@H](N(C)C)[C@H]1O (some centres not stated)	1 µg/mL (≈ 1.16 µM)	≤ 0.125 µg/mL	≤ 0.125 µg/mL	8 µg/mL (≈ 9.25 µM)	1 µg/mL (≈ 1.16 µM)	1 µg/mL (≈ 1.16 µM)	0.5 µg/mL (≈ 0.578 µM)	> 64 µg/mL	> 64 µg/mL	> 64 µg/mL
C=CCO[C@]1(C)C[C@@H](C)NC(=O)[C@H](C)[C@@H](O)[C@](C)(O)[C@@H](CC)OC(=O)[C@H](C)[C@@H](OC(=O)CCNC(C)C(=O)Nc2ccc([N+](=O)[O-])cc2)[C@H](C)[C@H]1O[C@@H]1O[C@H](C)C[C@H](N(C)C)[C@H]1O (some centres not stated)	1 µg/mL (≈ 1.12 µM)	≤ 0.125 µg/mL	≤ 0.125 µg/mL	8 µg/mL (≈ 8.95 µM)	0.5 µg/mL (≈ 0.559 µM)	1 µg/mL (≈ 1.12 µM)	0.25 µg/mL (≈ 0.28 µM)	> 64 µg/mL	> 64 µg/mL	> 64 µg/mL
CC[C@H]1OC(=O)[C@H](C)[C@@H](OC(=O)CCNCCNc2cc3c(=O)c(C(=O)O)cn(C4CC4)c3cc2Cl)[C@H](C)[C@@H](O[C@@H]2O[C@H](C)C[C@H](N(C)C)[C@H]2O)[C@](C)(OC/C=C/c2cnc3ccccc3n2)C[C@@H](C)NC(=O)[C@H](C)[C@@H](O)[C@]1(C)O	0.5 µg/mL (≈ 0.441 µM)	≤ 0.125 µg/mL	≤ 0.125 µg/mL	4 µg/mL (≈ 3.52 µM)	1 µg/mL (≈ 0.881 µM)	1 µg/mL (≈ 0.881 µM)	0.5 µg/mL (≈ 0.441 µM)	> 64 µg/mL	1 µg/mL (≈ 0.881 µM)	16 µg/mL (≈ 14.1 µM)
C=CCO[C@]1(C)C[C@@H](C)NC(=O)[C@H](C)[C@@H](O)[C@](C)(O)[C@@H](CC)OC(=O)[C@H](C)[C@@H](OC(=O)CCN2CCN(c3ccc4c(c3)c(=O)c(C(=O)O)cn4C3CC3)CC2)[C@H](C)[C@H]1O[C@@H]1O[C@H](C)C[C@H](N(C)C)[C@H]1O	4 µg/mL (≈ 4.01 µM)	2 µg/mL (≈ 2 µM)	4 µg/mL (≈ 4.01 µM)	16 µg/mL (≈ 16 µM)	16 µg/mL (≈ 16 µM)	8 µg/mL (≈ 8.01 µM)	4 µg/mL (≈ 4.01 µM)	> 64 µg/mL	16 µg/mL (≈ 16 µM)	32 µg/mL (≈ 32.1 µM)
NCCNc1cc2c(cc1F)c(=O)c(C(=O)O)cn2C1CC1	> 64 µg/mL	> 64 µg/mL	> 64 µg/mL	> 64 µg/mL	–	–	–	–	–	–
C=CCO[C@]1(C)C[C@@H](C)NC(=O)[C@H](C)[C@@H](O)[C@](C)(O)[C@@H](CC)OC(=O)[C@H](C)[C@@H](OC(=O)CCNC(C)C(=O)Nc2cnc3ccccc3c2)[C@H](C)[C@H]1O[C@@H]1O[C@H](C)C[C@H](N(C)C)[C@H]1O (some centres not stated)	0.5 µg/mL (≈ 0.555 µM)	≤ 0.125 µg/mL	≤ 0.125 µg/mL	4 µg/mL (≈ 4.44 µM)	1 µg/mL (≈ 1.11 µM)	1 µg/mL (≈ 1.11 µM)	0.25 µg/mL (≈ 0.278 µM)	> 64 µg/mL	16 µg/mL (≈ 17.8 µM)	8 µg/mL (≈ 8.89 µM)
CC[C@H]1OC(=O)[C@H](C)C(=O)[C@H](C)[C@@H](O[C@@H]2O[C@H](C)C[C@H](N(C)C)[C@H]2O)[C@](C)(OCC=Cc2cnc3ccccc3c2)C[C@@H](C)C(=O)[C@H](C)[C@H]2NC(=O)O[C@@]21C [CETHROMYCIN]	≤ 0.125 µg/mL	≤ 0.06 µg/mL	≤ 0.06 µg/mL	2 µg/mL (≈ 2.61 µM)	≤ 0.125 µg/mL	0.25 µg/mL (≈ 0.326 µM)	–	> 64 µg/mL	≤ 0.125 µg/mL	1 µg/mL (≈ 1.31 µM)
C=CCO[C@]1(C)C[C@@H](C)NC(=O)[C@H](C)[C@@H](O)[C@](C)(O)[C@@H](CC)OC(=O)[C@H](C)[C@@H](OC(=O)CCNC(C)Cc2ccc(OC)cc2)[C@H](C)[C@H]1O[C@@H]1O[C@H](C)C[C@H](N(C)C)[C@H]1O (some centres not stated)	2 µg/mL (≈ 2.35 µM)	0.5 µg/mL (≈ 0.588 µM)	0.25 µg/mL (≈ 0.294 µM)	16 µg/mL (≈ 18.8 µM)	4 µg/mL (≈ 4.71 µM)	2 µg/mL (≈ 2.35 µM)	2 µg/mL (≈ 2.35 µM)	> 64 µg/mL	> 64 µg/mL	> 64 µg/mL
C=CCO[C@]1(C)C[C@@H](C)NC(=O)[C@H](C)[C@@H](O)[C@](C)(O)[C@@H](CC)OC(=O)[C@H](C)[C@@H](OC(=O)CCN(C)CCc2ccccc2)[C@H](C)[C@H]1O[C@@H]1O[C@H](C)C[C@H](N(C)C)[C@H]1O	4 µg/mL (≈ 4.88 µM)	0.25 µg/mL (≈ 0.305 µM)	0.5 µg/mL (≈ 0.61 µM)	16 µg/mL (≈ 19.5 µM)	8 µg/mL (≈ 9.76 µM)	4 µg/mL (≈ 4.88 µM)	2 µg/mL (≈ 2.44 µM)	> 64 µg/mL	> 64 µg/mL	> 64 µg/mL
C=CCO[C@]1(C)C[C@@H](C)NC(=O)[C@H](C)[C@@H](O)[C@](C)(O)[C@@H](CC)OC(=O)[C@H](C)[C@@H](OC(=O)CCNC(C)C(=O)Nc2ccc3ncccc3c2)[C@H](C)[C@H]1O[C@@H]1O[C@H](C)C[C@H](N(C)C)[C@H]1O (some centres not stated)	0.5 µg/mL (≈ 0.555 µM)	≤ 0.125 µg/mL	≤ 0.125 µg/mL	4 µg/mL (≈ 4.44 µM)	0.25 µg/mL (≈ 0.278 µM)	0.5 µg/mL (≈ 0.555 µM)	0.25 µg/mL (≈ 0.278 µM)	> 64 µg/mL	8 µg/mL (≈ 8.89 µM)	4 µg/mL (≈ 4.44 µM)
O=C(O)c1cn(C2CC2)c2cc(N3CCNCC3)c(F)cc2c1=O [CIPROFLOXACIN]	≤ 0.125 µg/mL	≤ 0.125 µg/mL	2 µg/mL (≈ 6.04 µM)	≤ 0.125 µg/mL	≤ 0.125 µg/mL	–	0.25 µg/mL (≈ 0.754 µM)	–	0.25 µg/mL (≈ 0.754 µM)	0.5 µg/mL (≈ 1.51 µM)
C=CCO[C@]1(C)C[C@@H](C)NC(=O)[C@H](C)[C@@H](O)[C@](C)(O)[C@@H](CC)OC(=O)[C@H](C)[C@@H](OC(=O)CCNCCCc2ccccc2)[C@H](C)[C@H]1O[C@@H]1O[C@H](C)C[C@H](N(C)C)[C@H]1O	2 µg/mL (≈ 2.44 µM)	1 µg/mL (≈ 1.22 µM)	2 µg/mL (≈ 2.44 µM)	16 µg/mL (≈ 19.5 µM)	8 µg/mL (≈ 9.76 µM)	4 µg/mL (≈ 4.88 µM)	4 µg/mL (≈ 4.88 µM)	> 64 µg/mL	> 64 µg/mL	> 64 µg/mL
C=CCO[C@]1(C)C[C@@H](C)NC(=O)[C@H](C)[C@@H](O)[C@](C)(O)[C@@H](CC)OC(=O)[C@H](C)[C@@H](OC(=O)CCN2CCN(c3cc4c(cc3F)c(=O)c(C(=O)OC)cn4C3CC3)CC2)[C@H](C)[C@H]1O[C@@H]1O[C@H](C)C[C@H](N(C)C)[C@H]1O	2 µg/mL (≈ 1.94 µM)	2 µg/mL (≈ 1.94 µM)	2 µg/mL (≈ 1.94 µM)	8 µg/mL (≈ 7.77 µM)	8 µg/mL (≈ 7.77 µM)	4 µg/mL (≈ 3.88 µM)	4 µg/mL (≈ 3.88 µM)	> 64 µg/mL	8 µg/mL (≈ 7.77 µM)	32 µg/mL (≈ 31.1 µM)
O=C(O)c1cn(C2CC2)c2ccc(N3CCNCC3)cc2c1=O	> 64 µg/mL	> 64 µg/mL	> 64 µg/mL	> 64 µg/mL	–	–	–	–	–	–
C=CCO[C@]1(C)C[C@@H](C)NC(=O)[C@H](C)[C@@H](O)[C@](C)(O)[C@@H](CC)OC(=O)[C@H](C)[C@@H](OC(=O)CCN(C)CCc2ccc([N+](=O)[O-])cc2)[C@H](C)[C@H]1O[C@@H]1O[C@H](C)C[C@H](N(C)C)[C@H]1O	0.5 µg/mL (≈ 0.578 µM)	≤ 0.125 µg/mL	≤ 0.125 µg/mL	8 µg/mL (≈ 9.25 µM)	–	0.5 µg/mL (≈ 0.578 µM)	–	> 64 µg/mL	> 64 µg/mL	> 64 µg/mL

— ChEMBL document CHEMBL4041467, “Synthesis of novel 15-membered 8a-azahomoerythromycin A acylides: Consequences of structural modification at the C-3 and C-6 position on antibacterial activity” (Eur J Med Chem, 2017)
